Where a name gives a salt, the structure may show the parent alone. Activity calls are given as the source filed them. For most assays here, no stated cut-off is given here; in the data, actives have a measured EC50 and inactives only a lower limit.
Assays:
[1] = viability of uninfected HEp-2 cells – cell-based, HTS, cytotoxicity control for RSV inhibitor project, dose response (AID 2410); format: functional; conditions: human respiratory syncytial virus
[2] = target: T1, Heat shock factor protein 1 (Mus musculus, UniProt P38532); assay: decrease of HSF1-responsive luciferase luminescence – cell-based, NIH3T3, dose retest, confirmation (AID 2382); format: functional;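 further: NIH3T3 fibroblasts with HSF1-driven luciferase reporter stressed by proteasome inhibitor MG132; luminescence from HSF1-driven luciferase expression after 8 hours of MG132 stress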
T1 sequence (P38532 whole entry): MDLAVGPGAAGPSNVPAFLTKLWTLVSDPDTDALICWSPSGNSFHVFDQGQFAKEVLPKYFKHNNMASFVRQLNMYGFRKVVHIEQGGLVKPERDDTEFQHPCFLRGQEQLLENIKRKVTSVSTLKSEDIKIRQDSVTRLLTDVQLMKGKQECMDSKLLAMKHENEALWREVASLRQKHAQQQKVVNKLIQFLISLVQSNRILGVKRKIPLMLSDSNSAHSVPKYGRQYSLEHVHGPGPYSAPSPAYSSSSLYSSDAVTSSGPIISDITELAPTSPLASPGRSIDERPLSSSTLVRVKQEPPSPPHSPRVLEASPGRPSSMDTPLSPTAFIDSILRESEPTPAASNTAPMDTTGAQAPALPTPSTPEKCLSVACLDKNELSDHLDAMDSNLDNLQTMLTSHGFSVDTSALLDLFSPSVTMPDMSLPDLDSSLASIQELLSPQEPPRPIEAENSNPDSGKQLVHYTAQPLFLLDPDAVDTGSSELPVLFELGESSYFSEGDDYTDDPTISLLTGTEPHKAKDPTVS

[3] = Luminescence Cell-Based Dose Retest to Confirm Inhibitors of Cancer Stem Cells. [Related pubchem assays (depositor defined):AID2717, AID2721]; format: functional; conditions: Homo sapiens
Streptococcus = assay: GAS UMAA2166 growth inhibition – luminescence, BacTiterGlo, counter-screen for streptokinase expression inhibitor project, dose response (AID 1915); format: functional, organism-based;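 further: potency for reduction of bacterial viability or growth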
Streptokinase A = target: T2, Streptokinase A (Streptococcus pyogenes serotype M1, UniProt P10520); assay: viability-normalized secreted streptokinase activity reduction – plasminogen activation absorbance, OD405, dose response (AID 1914); format: functional, Streptococcus pyogenes M1 GAS;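 further: secreted streptokinase activity via plasminogen activation per viability signal from cell pellet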
T2 sequence (P10520 whole entry): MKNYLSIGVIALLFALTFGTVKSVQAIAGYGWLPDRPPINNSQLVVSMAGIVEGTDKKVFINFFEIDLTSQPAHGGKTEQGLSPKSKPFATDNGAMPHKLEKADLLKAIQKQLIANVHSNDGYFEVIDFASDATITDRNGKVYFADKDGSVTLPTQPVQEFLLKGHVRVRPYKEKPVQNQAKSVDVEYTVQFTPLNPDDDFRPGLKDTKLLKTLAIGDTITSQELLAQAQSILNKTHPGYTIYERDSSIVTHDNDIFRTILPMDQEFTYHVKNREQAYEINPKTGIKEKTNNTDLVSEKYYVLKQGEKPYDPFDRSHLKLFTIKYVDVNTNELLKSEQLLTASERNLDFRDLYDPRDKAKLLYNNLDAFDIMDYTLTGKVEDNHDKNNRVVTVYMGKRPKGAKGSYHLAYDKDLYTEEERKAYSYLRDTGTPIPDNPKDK

[4] = Luminescence Cell-Based Dose Response HTS to Identify Activators of Luciferase Translation or Activity in H4 […] Cells. [Related pubchem assays: 1829 (Project Summary), 1814 (Primary HTS)]; format: functional
[5] = system: Streptococcus sp. 'group A'; assay: Streptococcus pyogenes SK(-)GAS viability under kanamycin – luminescence, BacTiterGlo, confirmation, counter-screen for streptokinase expression inhibitor project, dose response (AID 1900); format: functional, organism-based
[6] = target: T3, Rac GTPase-activating protein 1 (Homo sapiens, UniProt Q9H0H5); assay: blockers of MgcRacGAP-driven Rac1 GTP hydrolysis – biochemical, ADP Hunter fluorescence, primary and confirmatory, confirmation (AID 624330); format: functional
T3 sequence (Q9H0H5 whole entry): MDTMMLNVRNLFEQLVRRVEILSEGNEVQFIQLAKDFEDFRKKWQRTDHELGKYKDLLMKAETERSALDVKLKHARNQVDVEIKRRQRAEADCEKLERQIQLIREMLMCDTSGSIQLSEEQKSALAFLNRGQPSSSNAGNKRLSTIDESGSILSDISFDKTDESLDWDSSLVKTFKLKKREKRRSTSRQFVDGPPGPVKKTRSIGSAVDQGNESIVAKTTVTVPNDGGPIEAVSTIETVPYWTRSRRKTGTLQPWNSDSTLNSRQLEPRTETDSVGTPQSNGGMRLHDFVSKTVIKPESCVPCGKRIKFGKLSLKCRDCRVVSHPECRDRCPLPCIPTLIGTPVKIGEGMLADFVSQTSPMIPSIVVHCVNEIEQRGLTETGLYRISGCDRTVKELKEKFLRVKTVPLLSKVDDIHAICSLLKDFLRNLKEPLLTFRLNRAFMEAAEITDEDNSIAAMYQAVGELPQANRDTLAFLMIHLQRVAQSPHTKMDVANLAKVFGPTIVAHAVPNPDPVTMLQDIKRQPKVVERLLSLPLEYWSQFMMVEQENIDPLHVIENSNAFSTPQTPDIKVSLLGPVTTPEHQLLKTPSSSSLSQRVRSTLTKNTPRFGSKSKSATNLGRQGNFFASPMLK

[7] = target: T4, Corticotropin-releasing factor receptor 2/Corticotropin-releasing factor-binding protein (Homo sapiens, UniProt P24387+Q13324); assay: activators of CRF receptor 2 with binding protein – uHTS hits, confirmation (AID 602473); format: functional; conditions: read-out: EC50_Mean
T4 sequence (Q13324 whole entry): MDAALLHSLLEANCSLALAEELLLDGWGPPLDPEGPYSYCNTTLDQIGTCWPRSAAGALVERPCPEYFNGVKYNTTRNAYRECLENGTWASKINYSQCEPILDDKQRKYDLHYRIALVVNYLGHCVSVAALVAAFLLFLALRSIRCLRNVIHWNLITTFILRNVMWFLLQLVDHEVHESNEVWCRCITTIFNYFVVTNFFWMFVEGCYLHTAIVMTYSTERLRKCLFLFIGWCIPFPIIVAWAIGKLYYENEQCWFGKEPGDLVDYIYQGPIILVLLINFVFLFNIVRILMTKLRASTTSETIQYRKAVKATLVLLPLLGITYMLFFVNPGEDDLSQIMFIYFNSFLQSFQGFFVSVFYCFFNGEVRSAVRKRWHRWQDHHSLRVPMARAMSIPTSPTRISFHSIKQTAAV
T4 sequence (P24387 whole entry): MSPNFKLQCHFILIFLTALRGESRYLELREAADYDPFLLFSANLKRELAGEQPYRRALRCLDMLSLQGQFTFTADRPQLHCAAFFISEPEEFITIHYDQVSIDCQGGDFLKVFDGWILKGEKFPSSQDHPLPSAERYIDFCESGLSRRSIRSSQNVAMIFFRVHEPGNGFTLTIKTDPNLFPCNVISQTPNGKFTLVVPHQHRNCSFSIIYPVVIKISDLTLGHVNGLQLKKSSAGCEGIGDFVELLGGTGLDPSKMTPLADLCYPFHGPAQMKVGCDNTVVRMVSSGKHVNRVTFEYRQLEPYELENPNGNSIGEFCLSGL
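Wherever AC50 is given: cells exposed to compound for roughly 70 hours or longer before luminescence read.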

O=C(c1ccc(F)cc1)N1CCN(c2cc(N3CCCCC3)c(F)cc2[N+](=O)[O-])CC1
CC50 [1]: 16.6 µM (active)

NC(=O)Cc1ccc(C(=O)c2ccc(Cl)cc2)s1
EC50 [2]: > 195 µM (not active)

CCc1nc(NCCO)c(C#N)c2c1CCCC2
CC50 [1]: 30.6 µM (active)

N#C/C(=C\c1c(Cl)cccc1Cl)c1nc2ccccc2[nH]1
CC50 [1]: 20.3 µM (active)

CCO[C@H]1OC(C(=O)NCc2ccccc2)=C[C@@H](c2ccc(Br)cc2)[C@@H]1CCCO
CC50 [1]: 22 µM (active)

c1ccc(-c2nnc3sc(CN4CCc5ccccc54)cn23)cc1
AC50 [3]: 7.58 µM (active)

Cc1ccc(NC(=O)[C@@H](C)NC(=O)[C@@H]2Cc3ccccc3CN2)cc1
EC50 [2]: > 195 µM (not active)

CC1Oc2cc3oc4c(O)c5c(cc4c(=O)c3c(O)c2C1(C)C)C=CC(C)(C)O5 (stereo unspecified) [GERONTOXANTHONE A]
EC50 (Streptococcus): 25.9 µM (active) | EC50 (Streptokinase A): 10.7 µM (active) | EC50 [4]: 2.13 µM (active) | EC50 [5]: 1.11 µM (active) | CC50 [1]: 14.9 µM (active)

COc1ccc(NC(=O)CCN2CCN(S(=O)(=O)c3ccc(OC)cc3)CC2)cc1
EC50 [2]: > 195 µM (not active)

COc1ccc2oc(C(=O)OCC(=O)NC3(C#N)CCCC3)c(C)c2c1
EC50 (Streptococcus): > 150 µM (not active) | EC50 (Streptokinase A): > 150 µM (not active) | EC50 [5]: 57.9 µM (active)

c1cncc(-c2nnc(SCc3nc4ccccc4[nH]3)o2)c1
EC50 [2]: 126 µM (active)

COc1cc(OC)c(C(=O)Nc2ccc(N(C)C)cc2)cc1OC
IC50 [6]: 22.1 µM (active)

Nc1nc(CN2CCN(c3ccc(F)cc3)CC2)nc(N2CCCc3ccccc32)n1
EC50 (Streptococcus): > 150 µM (not active) | EC50 (Streptokinase A): > 150 µM (not active) | EC50 [5]: 2.01 µM (active)

Cc1cc(N/N=C/c2ccccc2Cl)nc(NCc2ccccc2)n1
AC50 [3]: 3.88 µM (active)

COc1cc(/C(C)=N/N2CCN(c3ccccc3OC)CC2)ccc1O
IC50 [6]: 208 µM (active)

CC(C)c1ccc(NC(=O)CNCC(c2ccccc2)N(C)C)cc1 (stereo unspecified)
IC50 [6]: 109 µM (active)

Cc1ccc(C(C)C)c(OCc2ccc(C(=O)N/N=C/c3ccc(O)c(O)c3)cc2)c1
AC50 [3]: 3.23 µM (active)

Cn1c(CNC(=O)CNC(=O)c2ccc(F)cc2)cc(=O)n(C)c1=O
EC50 (Streptococcus): > 150 µM (not active) | EC50 (Streptokinase A): > 150 µM (not active) | EC50 [5]: > 150 µM (not active)

CCOc1ccc(/C=N/NC(=S)NC2CC3C=CC2C3)cc1 (stereo unspecified)
EC50 (Streptococcus): > 150 µM (not active) | EC50 (Streptokinase A): > 150 µM (not active) | EC50 [5]: > 150 µM (not active)

CCOC(=O)c1sc(NC(=O)c2ccc(S(=O)(=O)N3CCCCCC3)cc2)nc1-c1ccccc1
CC50 [1]: 7.07 µM (active)

N#CCCn1nnc(-c2ccccc2F)n1
EC50 [2]: > 195 µM (not active)

COc1ccc(C2NS(=O)(=O)N=C2N)cc1 (stereo unspecified)
EC50 [2]: > 195 µM (not active)

CCCN1CCC(=O)N([C@H](CSc2ccccc2)Cc2ccccc2)CC1
EC50 [2]: > 195 µM (not active)

O=C(NC(=S)Nc1ccc(F)cc1)c1ccc2c(c1)OCCO2
EC50 [7]: > 53 µM (inactive) | EC50 [2]: > 195 µM (not active)

CC(C)N(C(=O)CSc1nc(COc2ccccc2)nc2ccccc12)C(C)C
CC50 [1]: 23.7 µM (active)

CC(=O)NC(Cc1ccccc1)C(=O)Oc1ccc2ccccc2c1 (stereo unspecified)
IC50 [6]: 39.7 µM (active)

Cn1c(=O)c2ccccc2n(Cc2ccccc2Cl)c1=O
EC50 [2]: > 195 µM (not active)

Cc1ccccc1OCC(=O)NCCS(=O)(=O)N1CCN(c2ccc(F)cc2)CC1
CC50 [1]: 38.1 µM (active)

Cc1ccc(C(=O)NNC(=S)NC(=O)c2ccc(Cl)cc2Cl)cc1
EC50 [7]: 2.78 µM (active) | EC50 (Streptococcus): 3.82 µM (active) | EC50 [5]: 0.196 µM (active)

Cc1cccc(N2CCC(/N=C/N(C)C)=N2)c1
IC50 [6]: 29.2 µM (active)

CCOC(=O)c1cc(-c2ccccc2)sc1NC(=O)C(C)OC(=O)c1ccncc1 (stereo unspecified)
CC50 [1]: 47.6 µM (active)

O=C(CNC1CC1)Nc1cc(C(F)(F)F)ccc1Cl
IC50 [6]: 123 µM (active)

CCN(CC)c1ccc(C=C2SC(=S)NC2=O)cc1
EC50 [7]: 4.11 µM (active)

O=C(OCCN1CCN(c2ncc(C(F)(F)F)cc2Cl)CC1)c1ccc(Cl)cc1
EC50 [2]: > 195 µM (not active)

Cc1cc(F)ccc1S(=O)(=O)NCC1CC2CCC1C2 (stereo unspecified)
EC50 [7]: > 53 µM (inactive)

CC(C)(C)Cc1nnc(NS(=O)(=O)c2ccc(F)cc2)s1
EC50 [2]: > 195 µM (not active)

Cc1ccc(C(=O)Nc2ccc(C(=O)O)cc2NC(=O)c2ccc(C)cc2)cc1
EC50 [2]: 14.7 µM (active)

CCOC(=O)C1CCN(C(=O)COc2cc(C)c(Br)cc2C)CC1
EC50 [2]: > 195 µM (not active)

Cn1c(=O)[nH]c(=O)c2c1[nH]c(=S)n2Cc1ccc(Cl)cc1
IC50 [6]: 31.7 µM (active)

Clc1ccc(/C=C/c2nc(Cl)c(-c3ccc(Cl)cc3)c(Cl)n2)cc1
EC50 (Streptococcus): > 150 µM (not active) | EC50 (Streptokinase A): 10 µM (active) | EC50 [5]: 33 µM (active)

Cc1ccsc1/C=C/C1=NCCCN1C [MORANTEL TARTRATE]
EC50 [2]: > 195 µM (not active)

COc1nc(-c2ccc(C)cc2)ccc1-c1noc(-c2cccnc2)n1
CC50 [1]: 31.1 µM (active)

COC(=O)C1=C(C)N(CCCC(=O)O)C(=O)NC1c1ccc(C#N)cc1 (stereo unspecified)
EC50 [2]: > 195 µM (not active)

C=CCn1/c(=N/C(=O)C2COc3ccccc3O2)sc2cccc(OC)c21 (stereo unspecified)
CC50 [1]: 18.4 µM (active)

Cc1ccc(NC(=O)CC2C(=O)N(Cc3ccccc3)C(=S)N2NC(=O)c2ccccc2)c(C)c1 (stereo unspecified)
CC50 [1]: > 50 µM (active)

Cc1csc(Nc2ccc(Cl)cc2)[n+]1-c1ccc(Cl)cc1
EC50 (Streptococcus): > 150 µM (not active) | EC50 (Streptokinase A): 29.9 µM (active) | EC50 [5]: 12.9 µM (active)

CCOc1ccc(NS(=O)(=O)c2ccc(C(=O)NCC(c3cccs3)N3CCOCC3)cc2)cc1 (stereo unspecified)
EC50 [7]: 5.04 µM (active)
